Measurements taken from patent US20060160114A1, “Reagents and methods for predicting drug resistance” (Oncotech, Inc., priority 2004, published 2006).

Test system: tumor cells from patient tumor samples
Test: Extreme Drug Resistance (EDR) assay, tritiated thymidine incorporation in soft agarose culture
Assay type: cell-based, human
Details: supratoxic dose 33 μM, positive (background) control group
Procedure: In the practice of this assay, tumor cells are taken from a cancer biopsy and exposed to cancer chemotherapeutics in culture. During the culture period, radioactive thymidine is added, which is incorporated into the DNA of growing and dividing cancer cells (which are thus resistant to the cytostatic or cytotoxic effects of the cancer chemotherapeutic). Tritiated thymidine is not incorporated into cells that are sensitive to the drug and reduce or suspend growth and division in response to the drug. […] By measuring the amount of radioactivity in a sample, the assay determines the relative resistance of an individual patient's cancer cells to a number of different chemotherapies. […]
The EDR assay is an agarose-based culture system, using tritiated thymidine incorporation to define in vitro drug response. […] The radioactivity trapped on the filters was counted with an LS-6500 scintillation Counter (Beckman, Fullerton, Calif.). […] Detectable radioactivity for this group was considered non-specific background related to debris trapping of tritiated thymidine on the filter. After subtracting background control values, percent control inhibition (PCI) of proliferation was determined by comparing thymidine incorporation by the treatment group with incorporation by the negative control group: PCI=100%×[1−(CPM treatment group/CPM control group)]. […]

## N.N.[Cl][Pt][Cl] [Cisplatin]
  cell death: 100%
